Test results from patent US11135228B2, “Cysteinyl-proresolving mediators that promote resolution of infection and organ protection” (THE BRIGHAM AND WOMEN'S HOSPITAL, priority 2014, dated 2021).

Experiments:
Human macrophages [1] = assay: Human macrophage phagocytosis of fluorescently labeled E. coli; type: cell-based; conditions: 17-series sulfido-conjugates 0.1-10 nM, 15 min; bacteria 40 min
Description: (§1) Leukocyte phagocytosis: Macrophages were prepared from peripheral blood mononuclear cells (PBMC) purchased from Children's Hospital Blood Bank, Boston, and phagocytosis was assessed as in (11). Briefly, macrophages (5×10^4 cells,/well) were incubated with SCI (10 pM-100 nM), SCII (10 pM-100 nM), MaR1 (10 pM-100 nM), or vehicle (0.1% EtOH in DPBS) for 15 min at 37° C., then fluorescent labeled apoptotic cells were added and cells incubated 45 min at 37° C. Extracellular fluorescence was quenched using Trypan blue (1:15 dilution) and phagocytosis assessed using an M3 SpectraMax plate reader. In select experiments, macrophages (5×10^4 cells/well) or neutrophils (1×10^5 cells/well) were obtained from human healthy volunteers' peripheral blood as in (11) in accordance with Partners Human Research Committee Protocol (#1999P001297), and incubated with H2DCFDA (5 μM, 30 min, 37° C.), then with SCI (10 pM-100 nM), SCI (10 pM-100 nM) or vehicle (0.1% EtOH in DPBS, 15 min, 37° C.) and E. coli (1:50 leukocytes to E. coli, 45 min, 37° C.) Intracellular reactive oxygen species were determined by measuring fluorescence using an M3 SpectraMax plate reader. To assess bacterial phagocytosis, macrophages (5×10^4 cells/well) or neutrophils (1×10^5 cells/well) were incubated with SCI (10 pM-100 nM), SCII (10 pM-100 nM) or vehicle (0.1% EtOH in DPBS, 15 min, 37° C.), then incubated with BacLight Green (Molecular Probes) labeled E. coli (1:50 leukocytes to E. coli, 45 min, 37° C.), Extracellular fluorescence was quenched using Trypan blue (1:15 dilution), and phagocytosis assessed using an M3 SpectraMax plate reader.
Macrophage phagocytosis was assessed using fluorescently labeled E. coli (serotype O6:K2;H1) with BacLight Green Bacterial Stain (Life Technologies, Eugene, Oreg., USA). E. coli [2.5×10^6 colony-forming units (CFL)/well] were then added to macrophages previously plated in 96-well plates (40 min at 37° C.) and incubated with 0.1-10 nM concentration of test compounds [15 min at 37° C. (pH 7.45)]. Fluorescence was measured on a SpectraMax M3 plate reader, and results were analyzed using SoftMax Pro.

Human macrophages [2] = assay: Macrophage phagolysosomal acidification (pHrodo dye); type: cell-based; conditions: in the presence of bacteria, 60 min
Description: Macrophage phagolysosomal acidification was assessed by incubating macrophages with pHrodo dye (Invitrogen) following the manufacturer's instructions. Subsequently, cells were incubated with 1 nM of test compounds (15 min at 37° C.), E. coli (2.5×10^6 CFU/well) were added, and fluorescence was assessed after 60 min (37° C.) using a BZ9000 microscope equipped with a ×20 objective (Keyence, Itasca, Ill., USA) and a fluorescence plate reader.

Human macrophages [3] = assay: Human macrophage efferocytosis of apoptotic PMN; type: cell-based; conditions: 17-series sulfido-conjugates 0.1-10 nM; apoptotic PMNs 40 min
Description: as §1
In determined experiments, human macrophages were incubated with SC isolates from regenerating planaria for 15 min at 37° C., then fluorescent labeled apoptotic cells were added and efferocytosis was assessed as detailed above.
Macrophage bacterial phagocytosis, efferocytosis, and phagolysosontal acidification: Human macrophages were plated in 96-well plates (5×10^4 cells per well) for 24 h, and phagocytosis or efferocytosis was assessed as in (14). In brief, apoptotic PMNs were obtained by culturing cells overnight in PBS^−/− (5×10^6 cells/ml). Apoptotic human PMNs were labeled with bisbenzimide H33342 trihydrochloride (Sigma-Aldrich). Human macrophages were incubated with 0.1-10 nM concentration of test products, and then labeled apoptotic PMNs were cocultured with macrophages for 40 min [37° C. […]]. Fluorescence was read on a SpectraMax M3 plate reader (Molecular Devices, Sunnyvale, Calif., USA), and results were analyzed using SoftMax Pro (Molecular Devices).

γ-glutamyl transferase [4] = assay: SCI and SCII levels in regenerating planaria with γ-glutamyl transferase inhibitor; type: in vivo, Dugesia japonica; conditions: Acivicin 2.5 mM
γ-glutamyl transferase [5] = assay: Sulfido-conjugate levels in activated human macrophages with γ-glutamyl transferase inhibitor; type: cell-based; conditions: Acivicin 2.5 mM
Description: Human macrophages (3×10^7 cells/ml) were incubated with DHA (1 μg, 37° C., PBS, pH 7.45) and E. coli (1.5×10^8 […]). Incubations were stopped with 2 volumes ice-cold methanol, products were extracted and levels assessed by LC-MS-MS. In select experiments, macrophages were incubated with Acivicin (2.5 mM, 37° C. PBS, pH 7.45) prior to addition of DHA (1 μg) and. Acivicin (2.5 mM) and products assessed by LC-MS-MS.
In select experiments, human macrophages (˜4.5×10^7 cells/ml) were incubated with DHA (10.5 μM) or 17-HpD [10 μM at 37° C. (pH 7.45)] and E. coli (1:50) for 30 min at 37° C. Incubations were stopped with 2 volumes of ice-cold methanol, products were extracted, and levels assessed by LC-MS-MS. Macrophages were also incubated with or without Acivicin [2.5 mM at 37° C., PBS (pH 7.45)], a γ-glutamyl transferase (GGT) agent that inhibits LT D4 formation (16), before addition of 17-HpD (10 μM) and E. coli (1:50; 60 min), and products were taken to […].

[6] = system: Mice (hind-limb ischemia/reperfusion); assay: Hind-limb ischemia reperfusion, second organ reflow injury; type: in vivo, mouse; conditions: SCI plus SCII 50 ng each or RvD1 500 ng i.v.
Description: Ischemia Reperfusion: Mice were anesthetized by intraperitoneal (i.p.) injection of […]. To initiate hind-limb ischemia, tourniquets consisting of a rubber band were placed on each hind limb. Ten min prior to the initiation of reperfusion, Vehicle (saline containing 0.1% EtOH), SCI (50 ng) plus SCII (50 ng) or Resolvin D1 (500 ng) were administered by intravenous injection. At the end of reperfusion (3 h), mice were euthanized, blood collected via cardiac puncture and plasma isolated for lipid mediator metabololipidomics. Lungs were harvested, left lungs were frozen in liquid nitrogen and stored at −80° C. Right lungs were stored in 10% (v/v) buffered formalin and processed for histology and hematoxylin and eosin (H&E) staining by the Children's Hospital Boston Core Histology Facility, imaged using a Keyence BZ-9000 microscope and BZ II imaging software (Keyence) Expression of Ki67 and Roof plate-specific Spondin-3 (RSPO3) were assessed by immunofluorescence staining. Briefly, sections were deparafinized in xylene and rehydrated, then blocked in 10% horse serum and stained with either rat anti-mouse RSPON3 antibody (R&D Systems) for 1 h at room temperature and then with sheep anti-rat Alexa-594 conjugated antibody (BioLegend), or with rabbit anti-mouse antibody (Abeam) and then with donkey anti-rabbit Alexa-488 antibody (BioLegend). Slides were mounted in Vector Shield mounting solution with DAPI (Vector Labs) and immunofluorescence assessed using a Zeiss LSM 510 Meta confocal microscope. Images were processed using ImageJ software (National Institutes of Health) and Adobe Photoshop CS6 (Adobe Systems incorporated) software. Frozen lungs were gently dispersed, centrifuged, and tissue myeloperoxidase (MPO) levels were determined using mouse MPO ELISA (R&D Systems).

Row | Compound | human macrophage phagocytosis of E. coli (Human macrophages [1]) | macrophage phagolysosomal acidification (Human macrophages [2]) | human macrophage efferocytosis (uptake of apoptotic human PMNs) (Human macrophages [3]) | further results
1 | CC/C=C\C[C@H](O)\C=C/C=C/C=C/[C@H](O)C/C=C\C/C=C\CCC(=O)O [PD1, 10R,17S-dihydroxy-docosa-4Z,7Z,11E,13E,15Z,19Z-hexaenoic acid, reference compound] | comparable | – | – | –
2 | CC/C=C\C[C@H](O)/C=C/C=C\C=C\C=C\[C@@H](SC[C@H](N)C(=O)NCC(=O)O)[C@@H](O)C/C=C\CCC(=O)O [RCTR2, 8-cysteinylglycinyl, 7,17-hydroxy-4Z,9,11,13Z,15E,19Z-docosahexaenoic acid] | dose-dependent increase | dose-dependent increase | dose-dependent increase | –
3 | CC/C=C\CC(O)C(/C=C/C=C/C=C\C/C=C\C/C=C\CCC(=O)O)SCC(NC(=O)CCC(N)C(=O)O)C(=O)NCC(=O)O (stereo not shown) [PCTR1, 16-glutathionyl, 17-hydroxy-4Z,7Z,10,12,14,19Z-docosahexaenoic acid] | dose-dependent increase | dose-dependent increase | dose-dependent increase | –
4 | CC/C=C\C[C@H](O)[C@@H](/C=C/C=C/C=C\C/C=C\C/C=C\CCC(=O)O)SC[C@H](N)C(=O)O [PCTR3, 16-cysteinyl, 17-hydroxy-4Z,7Z,10,12,14,19Z-docosahexaenoic acid] | dose-dependent increase | dose-dependent increase | dose-dependent increase | –
5 | N[C@H](C(=O)O)[C@@H]1CC(Cl)=NO1 [Acivicin] | – | – | – | SCI level in regenerating planaria (γ-glutamyl transferase [4]): increased; SCII levels in regenerating planaria (γ-glutamyl transferase [4]): decreased; 8-cysteinyl, 7,17-dihydroxy-docosahexaenoic acid (RCTR3) levels (γ-glutamyl transferase [5]; E. coli): decrease; 8-glutathionyl, 7,17-dihydroxy-docosahexaenoic acid (RCTR1) levels (γ-glutamyl transferase [5]; E. coli): statistically significant increase; 16-cysteinyl, 17-hydroxy-docosahexaenoic acid (PCTR3) levels (γ-glutamyl transferase [5]; E. coli): decrease; 16-glutathionyl, 17-hydroxy-docosahexaenoic acid (PCTR1) levels (γ-glutamyl transferase [5]; E. coli): increase; SCI levels (γ-glutamyl transferase [5]; then DHA and E. coli): significant increase; SCII levels (γ-glutamyl transferase [5]; then DHA and E. coli): reduction
6 | CC/C=C\C[C@H](O)/C=C/C=C\C=C\C=C\[C@@H](O)[C@@H](O)C/C=C\CCC(=O)O [RvD1, 7S,8R,17S-trihydroxy-docosa-4Z,9E,11E,13Z,15E,19Z-hexaenoic acid, reference compound] | – | – | – | leukocyte infiltration/migration into lungs and spleens (MPO) [6]: comparable
7 | CC/C=C\C[C@H](O)/C=C/C=C\C=C\C=C\[C@@H](SC[C@H](NC(=O)CC[C@H](N)C(=O)O)C(=O)NCC(=O)O)[C@@H](O)C/C=C\CCC(=O)O [RCTR1, 8-glutathionyl, 7,17-hydroxy-4Z,9,11,13Z,15E,19Z-docosahexaenoic acid] | dose-dependent increase | dose-dependent increase | dose-dependent increase | –
8 | CC/C=C\C[C@H](O)[C@@H](/C=C/C=C/C=C\C/C=C\C/C=C\CCC(=O)O)SC[C@H](N)C(=O)NCC(=O)O [PCTR2, 16-cysteinylglycinyl, 17-hydroxy-4Z,7Z,10,12,14,19Z-docosahexaenoic acid] | dose-dependent increase | dose-dependent increase | dose-dependent increase | –
